How the values were obtained:
CDK2/Cyclin E1 = CDK2/Cyclin E1 (Homo sapiens, UniProt P24941); assay: ADP-Glo Luminescent Kinase Assay (CDK2/E1-37C); type: biochemical; settings: 0.18 nM CDK2/Cyclin E1, 100 μM ATP, Histone H1, 37° C.; read-out: ADPGLO (CDK2/E1-37C): IC50
Procedure: Inhibition of CDK2/Cyclin E1 activity by the presence of small molecules was evaluated using ADP-Glo Luminescent Kinase Assay (Promega). Activated CDK2/Cyclin E1 was incubated with its substrate Histone H1 (SignalChem H10-54N) in the kinase reaction buffer (100 μM ATP, 50 mM HEPES pH 7.5, 10 mM MgCl2, 1 mM EDTA, 2 mM DTT, 0.01% Brij35, 0.5 mg/mL BSA). Luminescence was recorded with an Envision plate reader (PerkinElmer).
Dose titrations of inhibitors in 100% DMSO were combined with 0.36 nM CDK2/Cyclin E1 in reaction buffer. The mixtures were incubated for 60 minutes at 37° C. before the addition of ATP and Histone H1 substrate to initiate the kinase reaction. The final conditions were 0.18 nM CDK2/Cyclin E1, 100 μM ATP, and […] Histone H1. The reactions were incubated at 37° C. for 90 minutes before being stopped with the addition of ADP-Glo reagent. This mixture was incubated at room temperature for 60 minutes before Kinase Detection Solution is added to generate luminescence. The stopped reactions were analyzed on an Envision plate reader. The conversion ratios were normalized to yield % activity, plotted against compound concentration, and fit to a four-parameter equation to determine the IC50 for each compound.

Kuramochi cells RB-KO = assay: IncuCyte Kuramochi cell proliferation assay, RB-KO; type: cell-based; settings: 72 hours, cell count, batch mean
Procedure: (§1) IncuCyte® assay was used to measure the effect of disclosed compounds on cell proliferation. Fluorescent microscopy images of cells were taken immediately after compound treatment and 72 hours later. Image analysis software was used to obtain cell counts as a function of compound concentration. Kuramochi cells labeled with mApple-H2B were seeded on 384-well assay-ready plates. Plates were placed in an IncuCyte® (Sartorius) and scanned at 0 and 72 hours. IncuCyte® software was used to count the number of fluorescent nuclei in each well. The fold change in cell count from 0 to 72 hours in wells treated with increasing compounds concentrations (10 pts, 1/2 log dilution, 20 µM top concentration) was normalized to DMSO control wells. The normalized cell counts were fit with dose response curves and a GI50 was calculated.

Kuramochi cells RB-WT = assay: IncuCyte Kuramochi cell proliferation assay, RB-WT; type: cell-based; settings: 72 hours, cell count
Procedure: as §1

IC50 (CDK2/Cyclin E1)	SMILES	IC50 (Kuramochi cells RB-KO)	IC50 (Kuramochi cells RB-WT)
≤ 0.5 µM	O=C(O)c1c(COCC2CN(C(=O)c3cnn(Cc4ccc(F)cc4)c3)CC23CN(C(=O)C2(C(F)(F)F)CC2)C3)cccc1-c1ccc(Cl)cc1F (stereo not drawn) [I′-73]	> 10 µM	≤ 0.5 µM
> 10 µM	O=C(O)c1c(COC[C@@H]2CN(C(=O)c3cnn(Cc4ccc(F)cc4)c3)CC23CN(C(=O)C2COC2)C3)cccc1C1CCC(C(F)(F)F)CC1 (stereo partly drawn) [Compound I-99]	> 10 µM	> 10 µM
0.5 to 5 µM	O=C(O)c1c(COC[C@@H]2CN(C(=O)c3cnn(Cc4ccc(F)cc4)c3)CC23CN(C(=O)CC2(C(F)(F)F)CC2)C3)cccc1C1CCC(C(F)(F)F)CC1 (stereo partly drawn) [Compound I-98]	> 10 µM	> 10 µM
0.5 to 5 µM	CC(C)(C)OC(=O)c1c(COCC2CN(C(=O)c3cnn(Cc4ccc(F)cc4C(F)(F)F)c3)CC23CN(C(=O)C2(C(F)(F)F)CC2)C3)cccc1C1CCC(C(F)(F)F)CC1 (stereo not drawn) [I′-83]	> 10 µM	> 10 µM
> 10 µM	CC1(C)C[C@@H]1C(=O)N1CC2(CN(C(=O)c3cnn(Cc4ccc(F)cc4)c3)CC2C#CCc2cccc(C3CCC(F)(F)CC3)c2C(=O)O)C1 (stereo partly drawn) [I′-78]	> 10 µM	> 10 µM

Second part, the compound before the results:

SMILES	IC50 (CDK2/Cyclin E1)	IC50 (Kuramochi cells RB-KO)	IC50 (Kuramochi cells RB-WT)
O=C(O)c1ccccc1Cn1cc(C(=O)N2C[C@@H](COCc3cccc(C4CCC(C(F)(F)F)CC4)c3)C3(C2)CN(C(=O)C2(C(F)(F)F)CC2)C3)cn1 (stereo in doubt) [Compound I-113, 2-((4-(8-(((3-(4-(trifluoromethyl)cyclohexyl)benzyl)oxy)methyl)-2-(1-(trifluoromethyl)cyclopropane-1-carbonyl)-2,6-diazaspiro[3.4]octane-6-carbonyl)-1H-pyrazol-1-yl)methyl)benzoic acid]	0.5 to 5 µM	> 10 µM	> 10 µM
CC1(C)C[C@@H]1C(=O)N1CC2(CN(C(=O)c3cnn(Cc4ccc(F)cc4)c3)CC2COCc2cccc(C3CCC(F)(F)CC3)c2C(=O)O)C1 (stereo partly drawn) [I′-80, 2-(4,4-difluorocyclohexyl)-6-(((2-((S)-2,2-dimethylcyclopropane-1-carbonyl)-6-(1-(4-fluorobenzyl)-1H-pyrazole-4-carbonyl)-2,6-diazaspiro[3.4]octan-8-yl)methoxy)methyl)benzoic acid]	≤ 0.5 µM	> 10 µM	0.5 to 5 µM
CC(C)(C(=O)N1CC2(CN(C(=O)c3cnn(Cc4ccc(F)cc4)c3)CC2COCc2cc(F)cc(C3CCC(F)(F)CC3)c2C(=O)O)C1)C(F)(F)F (stereo not drawn) [I′-68, 2-(4,4-difluorocyclohexyl)-4-fluoro-6-(((6-(1-(4-fluorobenzyl)-1H-pyrazole-4-carbonyl)-2-(3,3,3-trifluoro-2,2-dimethylpropanoyl)-2,6-diazaspiro[3.4]octan-8-yl)methoxy)methyl)benzoic acid]	≤ 0.5 µM	> 10 µM	5 to 10 µM
CC1(C)C[C@@H]1C(=O)N1CC2(CN(C(=O)c3cnn(Cc4ccc(F)cc4)c3)CC2COCc2cccc(C3CCC4(CCC4)CC3)c2C(=O)O)C1 (stereo partly drawn) [Compound I-88, 2-(((2-((S)-2,2-dimethylcyclopropane-1-carbonyl)-6-(1-(4-fluorobenzyl)-1H-pyrazole-4-carbonyl)-2,6-diazaspiro[3.4]octan-8-yl)methoxy)methyl)-6-(spiro[3.5]nonan-7-yl)benzoic acid]	≤ 0.5 µM	> 10 µM	0.5 to 5 µM
CC(C)(C(=O)N1CC2(C1)CN(c1cc(F)c(F)c3ncsc13)C[C@H]2COCc1cccc(C2CCC(F)(F)CC2)c1C(=O)O)C(F)(F)F [I′-71, (S)-2-(((6-(4,5-difluorobenzo[d]thiazol-7-yl)-2-(3,3,3-trifluoro-2,2-dimethylpropanoyl)-2,6-diazaspiro[3.4]octan-8-yl)methoxy)methyl)-6-(4,4-difluorocyclohexyl)benzoic acid]	≤ 0.5 µM	> 10 µM	5 to 10 µM
O=C(O)c1c(COC[C@@H]2CN(C(=O)c3c[nH]nc3Cc3ccccc3)CC23CN(C(=O)C2(C(F)(F)F)CC2)C3)cccc1C1CCC(C(F)(F)F)CC1 (stereo partly drawn) [Compound I-73]	0.5 to 5 µM	> 10 µM	> 10 µM

— patent US20260034123A1 (Cedilla Therapeutics, Inc., priority 2022, published 2026)
